From PubChem BioAssay (NCI)
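The compound was tested at five concentrations on cells cultured in 96-well plates, with a 48-hour exposure period. The concentration for 50% growth inhibition is given as GI50. At the TGI there is no net growth.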

Tests used:
Assay in all cases: inhibition of tumour cell growth, NCI panel, 48 h
A498 renal = test system: A498 renal
DU-145 prostate = test system: DU-145 prostate
HS 578T breast = test system: HS 578T breast
HT29 colon = test system: HT29 colon
MCF7 breast = test system: MCF7 breast
OVCAR-3 ovarian = test system: OVCAR-3 ovarian
OVCAR-8 ovarian = test system: OVCAR-8 ovarian
SK-OV-3 ovarian = test system: SK-OV-3 ovarian
SR leukemia = test system: SR leukemia
SW-620 colon = test system: SW-620 colon

Compound	TGI (A498 renal) [µM]	TGI (DU-145 prostate) [µM]	TGI (HS 578T breast) [µM]	TGI (HT29 colon) [µM]	TGI (MCF7 breast) [µM]	TGI (OVCAR-3 ovarian) [µM]	TGI (OVCAR-8 ovarian) [µM]	TGI (SK-OV-3 ovarian) [µM]	TGI (SR leukemia) [µM]	TGI (SW-620 colon) [µM]	GI50 (A498 renal) [µM]	GI50 (DU-145 prostate) [nM]	GI50 (HS 578T breast) [nM]	GI50 (HT29 colon) [nM]	GI50 (MCF7 breast) [nM]	GI50 (OVCAR-3 ovarian) [nM]	GI50 (OVCAR-8 ovarian) [nM]	GI50 (SR leukemia) [µM]	GI50 (SW-620 colon) [nM]	GI50 (SK-OV-3 ovarian) [nM]
Cn1c(=S)[nH]c(N)c(Cc2ccccc2)c1=O	> 100	> 100	> 100	> 100	> 100	> 100	> 100	> 100	> 100	> 100	–	–	–	–	–	–	–	–	–	–
CCOC(=O)c1cc([N+](=O)[O-])c(Sc2ncnc3nc[nH]c23)c([N+](=O)[O-])c1	25.6	29.2	49.1	14.5	3.41	7.52	17.9	5.04	83.3	5.25	–	–	–	–	–	–	–	–	–	–
C[C@@H](c1ccccc1)N1CO[C@@]2(C#Cc3ccc4c(c3)OCO4)CCC[C@@H]12	–	29.7	33.4	34.6	> 100	–	27	34.5	32.5	–	–	–	–	–	–	–	–	–	–	–
Nc1ncnc2c1ccn2-c1cccc(NC(=O)c2ccc(N3CCOCC3)c(C(F)(F)F)c2)c1	12.8	12.1	6.03	12.3	14.2	11.4	9.62	–	20.7	17.8	3.06	3200	1830	3000	3440	3040	2910	3.38	4230	–
CCOC(=O)CC1Nc2ccccc2C12CCc1c([nH]c3ccccc13)C2C(=O)OCC (stereo not given)	> 100	> 100	> 100	40.1	> 100	> 100	> 100	> 100	> 100	> 100	–	–	–	–	–	–	–	–	–	–
O=C(Nc1ccc(F)cc1)c1cc2c(cc1Cl)Sc1nccn1S2(=O)=O	74	> 100	> 100	> 100	> 100	> 100	> 100	> 100	–	> 100	–	–	–	–	–	–	–	–	–	–
Nc1ccc(C2SCC(=O)N2NS(=O)(=O)c2cccc(C(=O)O)c2)cc1 (stereo not given)	> 100	> 100	> 100	> 100	> 100	> 100	> 100	> 100	> 100	> 100	–	–	–	–	–	–	–	–	–	–
NS(=O)(=O)c1ccc(NC(=O)c2ccc3nc4ccccc4c(Nc4ccc(S(N)(=O)=O)cc4)c3c2)cc1	> 100	> 100	> 100	> 100	> 100	> 100	> 100	> 100	> 100	> 100	–	–	–	–	–	–	–	–	–	–
C#CCn1c(=O)ccn(/C(=C/C(=O)OCC)C(=O)OCC)c1=O	30.8	30.7	43.5	5.64	13	13.7	5.11	> 100	> 100	–	–	–	–	–	–	–	–	–	–	–
N=c1oc2cc(O)ccc2cc1C(=O)Nc1cccc2ccccc12	18.7	20	> 100	26.9	17.8	> 27.9	18.3	27.6	7.83	45.9	–	–	–	–	–	–	–	–	–	–
COC(=O)C1Cc2cc3c(cc2C1)CCC3	> 100	> 100	> 100	> 100	> 100	> 100	> 100	> 100	> 100	> 100	–	–	–	–	–	–	–	–	–	–
C=CCOCn1cnc2c(=O)[nH]c(N)nc21	> 100	> 100	> 100	–	> 100	–	> 100	> 100	> 100	> 100	–	–	–	–	–	–	–	–	–	–
COc1ccc2nc3cc(Cl)ccc3c(NCCCCCC(=O)NC(COc3ccc4ccc5cccnc5c4n3)COc3ccc4ccc5cccnc5c4n3)c2c1	31	23.6	73.9	> 100	15.1	> 100	> 100	> 100	12.3	33	–	–	–	–	–	–	–	–	–	–
COc1cc(C(c2ccc3c(c2)OCO3)C2SCCCS2)cc(OC)c1OC (stereo not given)	5.11	8.59	7.97	3.42	10.1	27.4	64.8	> 100	2.07	33	–	–	–	–	–	–	–	–	–	–
CC(C)C(/C=C/c1ccc(Cl)cc1)=N\NC(=O)N/N=C(/C=C/c1ccc(Cl)cc1)C(C)C	33.9	> 100	50.8	> 100	> 100	35.8	38	93.1	80.7	> 100	–	–	–	–	–	–	–	–	–	–
O[C@@]12Cc3c([nH]c4ccccc34)[C@@H]3Oc4c(-c5ccccc5)ccc5c4[C@@]31CCN(CC1CC1)[C@@H]2C5	2.79	–	4.62	3.29	3.22	3.04	5.01	10.7	> 100	4.61	–	–	–	–	–	–	–	–	–	–
S=C1NNC2(C(=S)N1)c1ccccc1-c1ccccc12	> 10	> 10	> 10	> 10	> 10	–	> 10	> 10	> 10	> 10	–	–	–	–	–	–	–	–	–	–
c1ccc2c(c1)-c1ccccc1C2NC1=NCCO1	34	> 100	> 100	60.6	60.8	67.8	57.2	> 100	79.3	> 100	–	–	–	–	–	–	–	–	–	–
CCCCCCCCCCCCCCCC(=O)OC1C(O)C(O)C(O)C(O)C12CO2 (stereo not given)	> 100	> 100	> 100	> 100	> 100	73	57.5	> 100	–	40	–	–	–	–	–	–	–	–	–	–
Cn1c(=O)cc(Nc2ccc(N)cc2)[nH]c1=O	> 100	–	> 100	> 100	> 100	> 100	> 100	> 100	> 100	> 100	–	–	–	–	–	–	–	–	–	–
C/C(=N\O)c1cccc(Nc2c3ccccc3nc3occc23)c1	> 100	59.2	55.3	95.7	34	80.1	83	36.8	> 100	–	–	–	–	–	–	–	–	–	–	–
OCC1OC(n2cnc3c(Cl)nc(Nc4ccc(Cl)c(Cl)c4)nc32)CC1O (stereo not given)	18.9	48.6	32.3	15.2	27.5	46.1	22.6	33.4	–	27.5	–	–	–	–	–	–	–	–	–	–

Compound	TGI (A498 renal) [µM]	TGI (DU-145 prostate) [µM]	TGI (HS 578T breast) [µM]	TGI (HT29 colon) [µM]	TGI (MCF7 breast) [µM]	TGI (OVCAR-3 ovarian) [µM]	TGI (OVCAR-8 ovarian) [µM]	TGI (SK-OV-3 ovarian) [µM]	TGI (SR leukemia) [µM]	TGI (SW-620 colon) [µM]	GI50 (A498 renal) [µM]	GI50 (DU-145 prostate) [nM]	GI50 (HS 578T breast) [nM]	GI50 (HT29 colon) [nM]	GI50 (MCF7 breast) [nM]	GI50 (OVCAR-3 ovarian) [nM]	GI50 (OVCAR-8 ovarian) [nM]	GI50 (SR leukemia) [µM]	GI50 (SW-620 colon) [nM]	GI50 (SK-OV-3 ovarian) [nM]
COC(=O)c1c2c(cc3c1CC1(C3)Cc3cc4c(c(C(=O)OC)c3C1)CCC4)CCC2	> 100	–	> 100	> 100	> 100	> 100	> 100	> 100	> 100	–	–	–	–	–	–	–	–	–	–	–
O=C1OC(c2ccccc2Br)=N/C1=C/c1ccccc1	> 100	> 100	> 100	> 100	> 100	35.4	59.6	> 100	> 100	> 100	–	–	–	–	–	–	–	–	–	–
O=c1c2cc([N+](=O)[O-])ccc2n2n1CCCCC2	> 100	> 100	> 100	> 100	–	> 100	> 100	> 100	> 100	> 100	–	–	–	–	–	–	–	–	–	–
c1cc(CSc2ncnc3nc[nH]c23)ccn1	> 100	> 100	> 100	> 100	> 100	> 100	> 100	> 100	> 100	> 100	–	–	–	–	–	–	–	–	–	–
OC(Cc1cc(CC(O)(C(F)(F)F)C(F)(F)F)nc(CC(O)(C(F)(F)F)C(F)(F)F)c1)(C(F)(F)F)C(F)(F)F	3.22	7.09	4.63	6.24	9.06	1.96	> 10	> 10	–	> 10	–	–	–	–	–	–	–	–	–	–
CCCCCCCCCCCCCCCCCCOc1ccccc1COP(=O)(O)OOCC[N+](C)(C)C	17.2	7.43	4.91	5.38	3.32	2.56	9.22	10.6	–	5.36	6.88	1880	1180	1210	1140	993	1410	–	1430	2380
CN1CCN(c2n[nH]c(=O)c3c2nnn3C2CCCCC2)CC1	> 100	> 100	> 100	> 100	> 100	> 100	> 100	–	> 100	> 100	–	–	–	–	–	–	–	–	–	–
O=C(O)c1ccc(Nc2cnc3cc(C(F)(F)F)ccc3n2)cc1	–	> 100	> 100	> 100	> 100	> 100	> 100	–	> 100	> 100	–	–	–	–	–	–	–	–	–	–
Cc1cccc(N=N/C(=N\NC(=O)c2cc(Cl)ccc2O)c2ccc(N(CCC#N)CCC#N)cc2C)c1	–	> 100	> 100	74	> 100	49.6	> 100	> 100	52.4	> 100	–	–	–	–	–	–	–	–	–	–
CC(=O)OCC1OC(O[C@H]2C=C[C@@H](C(=O)OCc3ccccc3)n3c(=O)n(-c4ccccc4)c(=O)n32)C(OC(C)=O)C(OC(C)=O)C1OC(C)=O (stereo not given in full)	5.33	8.47	4.55	3.49	–	3.18	7.41	33.6	5.92	17	–	–	–	–	–	–	–	–	–	–
CC(C)CC1N=C(OCc2ccccc2)OC1=O (stereo not given)	> 100	> 100	> 100	> 100	> 100	> 100	> 100	> 100	–	> 100	–	–	–	–	–	–	–	–	–	–
CC(=O)Oc1cc(-c2oc3cc(OC(C)=O)c(C4OC(CO)C(O)C(O)C4O)c(OC(C)=O)c3c(=O)c2O)c(OC(C)=O)cc1O (stereo not given)	–	> 100	> 100	> 100	> 100	> 100	> 100	> 100	–	> 100	–	–	–	–	–	–	–	–	–	–
[O-][N+]1=C2CCC/C(=N/O)C2(O)C2CCCCC21N1CCOCC1 (stereo not given)	–	–	> 100	> 100	> 100	> 100	> 100	> 100	> 100	> 100	–	–	–	–	–	–	–	–	–	–
CC(C)c1c(O[Si](C(C)C)(C(C)C)C(C)C)cc2c(c1O)CC[C@H]1C(C)(C)CCC[C@]21C	> 100	> 100	> 100	> 100	> 100	> 100	> 100	> 100	–	> 100	–	–	–	–	–	–	–	–	–	–
C=C1CC[C@@H]2[C@](C)(COC(=O)CCC(=O)O)CCC[C@@]2(C)[C@@H]1CCC1=CC(=O)OC1	> 100	38.7	> 100	> 100	> 100	> 100	> 100	> 100	–	> 100	–	–	–	–	–	–	–	–	–	–
O=C1c2ccccc2C(=O)N1NC1=NCCN1	> 100	> 100	–	> 100	> 100	> 100	> 100	> 100	> 100	> 100	–	–	–	–	–	–	–	–	–	–
CC1CC(=O)Nc2ccccc2N1C(=O)C1CC1 (stereo not given)	> 100	> 100	> 100	> 100	> 100	> 100	> 100	> 100	–	> 100	–	–	–	–	–	–	–	–	–	–
CCN(CC)CCSc1c(C(C)=O)c(=O)n(-c2ccccc2)c(=S)n1-c1ccccc1	40.6	10	> 93.4	37.7	8.45	8.79	10.9	> 100	–	13.4	–	–	–	–	–	–	–	–	–	–
CN(/N=C/C=N/N(C)C1=NCCN1)C1=NCCN1	–	> 100	> 100	> 100	> 100	> 100	> 100	> 100	> 100	> 100	–	–	–	–	–	–	–	–	–	–
CC1(C)[C@H]2Cc3cc4nc5ccccn5c4cc3[C@@H]1C2	–	41	37.7	28.3	17.8	35.6	30.5	36.4	–	52.5	–	–	–	–	–	–	–	–	–	–
COc1cc(OC)c(/C=N\Nc2nc3ccccc3c(=O)n2-c2ccccc2)c(OC)c1	41.1	> 94.1	–	54.3	> 73.8	50.9	> 64	77.6	> 100	> 100	–	–	–	–	–	–	–	–	–	–
